According to patent publication US10053453B2, “Compounds and their use as BACE inhibitors” (AstraZeneca AB, priority 2014, dated 2018):
Where two headings read alike, the source gives them in different places.

How the values were obtained:
[1] = target: T1, Human BACE1 (Homo sapiens, UniProt P56817); experiment: Diluted TR-FRET assay; assay type: biochemical; details: 50 times less enzyme, 6.5 h reaction time at r.t.; read-out: IC50 BACE1 (dil. TR-FRET)
T1 construct: the soluble part of the human β-Secretase1 (AA1-AA460) was cloned using the BACE1(1-460)-(AVT)-Fc-pGEN-IRES-neo mammalian expression vector; AVT linker (C); made in house
T1 sequence (P56817 22-460): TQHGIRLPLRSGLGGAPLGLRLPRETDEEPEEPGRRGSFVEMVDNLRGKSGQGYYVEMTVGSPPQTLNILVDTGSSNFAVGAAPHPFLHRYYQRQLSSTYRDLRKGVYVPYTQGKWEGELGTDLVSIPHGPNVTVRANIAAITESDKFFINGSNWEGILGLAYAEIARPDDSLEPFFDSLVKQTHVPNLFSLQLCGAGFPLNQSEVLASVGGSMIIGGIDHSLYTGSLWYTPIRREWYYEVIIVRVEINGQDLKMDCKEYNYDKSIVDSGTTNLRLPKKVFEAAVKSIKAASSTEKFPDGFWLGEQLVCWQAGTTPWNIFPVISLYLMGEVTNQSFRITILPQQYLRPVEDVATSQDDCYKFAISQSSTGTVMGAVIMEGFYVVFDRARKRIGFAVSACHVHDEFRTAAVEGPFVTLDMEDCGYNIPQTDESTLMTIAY
Method in brief: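 Human BACE1 (residues 1-460) was fused to an IgG1 Fc affinity tag and stably expressed in HEK 293 cells. Using a Multidrop Combi, 7 μL enzyme was added to 0.8 μL compound in dimethylsulphoxide and incubated 10 minutes. Reactions were stopped with 5.5 μL NaOAC Stop solution (pH 9), and TR-FRET fluorescence was read on a Pherastar HTRF module.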

[2] = target: T2, Human BACE2 (Homo sapiens, UniProt Q9Y5Z0); experiment: TR-FRET assay; assay type: biochemical; details: substrate 100 nM, pH4.5
T2 construct: the soluble part of the human β-Secretase2 (AA1-AA473) was cloned using BACE2(1-473)-(AVT)-Fc-pDEST12.2 mammalian expression vector; AVT linker (C); made in house
T2 sequence (Q9Y5Z0 21-473): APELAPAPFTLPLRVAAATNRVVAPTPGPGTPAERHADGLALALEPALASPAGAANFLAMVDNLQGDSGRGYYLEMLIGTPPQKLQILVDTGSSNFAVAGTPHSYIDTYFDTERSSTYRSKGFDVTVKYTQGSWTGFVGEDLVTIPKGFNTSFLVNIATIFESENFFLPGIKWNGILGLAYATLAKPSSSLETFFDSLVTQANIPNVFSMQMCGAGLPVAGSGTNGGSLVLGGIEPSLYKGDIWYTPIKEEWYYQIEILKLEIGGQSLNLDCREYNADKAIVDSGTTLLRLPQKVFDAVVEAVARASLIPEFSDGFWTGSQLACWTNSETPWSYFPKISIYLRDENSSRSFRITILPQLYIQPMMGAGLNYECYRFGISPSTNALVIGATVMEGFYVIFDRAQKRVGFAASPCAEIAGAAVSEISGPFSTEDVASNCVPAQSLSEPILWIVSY

[3] = test system: SH-SY5Y cells; experiment: sAPPβ release assay
[4] = Homo sapiens, SH-SY5Y, read-out: IC50 Cell (sAPPβ release, nM), SH-SY5Y cells, compounds incubated 16-17 h
[5] = read-out: IC50 Cell (sAPPβ release), SH-SY5Y cells, compounds incubated 16-17 h

SMILES	IC50 [1] [nM]	IC50 ([2]; enzyme 2.7 μg/mL) [nM]	IC50 [3, 4] [nM]	IC50 [3, 5] [nM]	IC50 ([3]; Homo sapiens, SH-SY5Y, read-out: IC50 Cell (sAPPβ release, nM)) [nM]	IC50 ([2]; enzyme […]) [nM]
[2H]C1([2H])CC2(N=C(N)O1)c1cc(-c3cc(C#N)cc(OC)c3)ccc1C[C@]21CC[C@@H](OC)CC1 (stereo partly drawn) [Compound 85, 3-((1r,4r)-2″-amino-4-methoxy-5″,6″-dihydro-3′H-dispiro[cyclohexane-1,2′-indene-1′,4″-[1,3]oxazin]-6′-yl-6″,6″-d2)-5-methoxybenzonitrile]	31.8	62.5	3.5	–	–	–
COCCCC1(C)Cc2ccc(-c3cc(C#N)cc(OC)c3)cc2C12COC(N)=N2 (stereo not drawn) [Compound 88, 3-(2′-amino-2-(3-methoxypropyl)-2-methyl-2,3-dihydro-5′H-spiro[indene-1,4′-oxazol]-6-yl)-5-methoxybenzonitrile]	1950	340	450	–	–	–
[2H]C1([2H])OC(N)=NC12c1cc(-c3cc(C#N)cc(OC)c3)ccc1CC2(C)C1CCOCC1 (stereo not drawn) [Compound 89, 3-(2′-amino-2-methyl-2-(tetrahydro-2H-pyran-4-yl)-2,3-dihydro-5′H-spiro[indene-1,4′-oxazol]-6-yl-5′,5′-d2)-5-methoxybenzonitrile]	> 5000	> 5000	889	–	–	–
COCCCC1Cc2ccc(-c3cc(C#N)cc(OC)c3)cc2C12COC(N)=N2 (stereo not drawn) [Compound 90, 3-(2′-amino-2-(3-methoxypropyl)-2,3-dihydro-5′H-spiro[indene-1,4′-oxazol]-6-yl)-5-methoxybenzonitrile]	> 5000	> 5000	715	–	–	–
COc1cc(C#N)cc(-c2ccc3c(c2)C2(COC(N)=N2)C(C2CCOCC2)C3)c1 (stereo not drawn) [Compound 91, 3-(2′-Amino-2-(tetrahydro-2H-pyran-4-yl)-2,3-dihydro-5′H-spiro[indene-1,4′-oxazol]-6-yl)-5-methoxybenzonitrile]	4660	701	331	–	–	–
COCCC1Cc2ccc(-c3cc(C#N)cc(OC)c3)cc2C12COC(N)=N2 (stereo not drawn) [Compound 92, 3-(2′-amino-2-(2-methoxyethyl)-2,3-dihydro-5′H-spiro[indene-1,4′-oxazol]-6-yl)-5-methoxybenzonitrile]	4160	437	223	–	–	–
COCCC1(C)Cc2ccc(-c3cc(C#N)cc(OC)c3)cc2C12COC(N)=N2 (stereo not drawn) [Compound 93, 3-(2′-amino-2-(2-methoxyethyl)-2-methyl-2,3-dihydro-5′H-spiro[indene-1,4′-oxazol]-6-yl)-5-methoxybenzonitrile]	> 5000	1210	561	–	–	–
NC1=NC2(CO1)c1cc(-c3cncnc3)ccc1CC2C1CCOCC1 (stereo not drawn) [Compound 94, 6-(pyrimidin-5-yl)-2-(tetrahydro-2H-pyran-4-yl)-2,3-dihydro-5′H-spiro[indene-1,4′-oxazol]-2′-amine]	4660	701	331	–	–	–
CC1(C2CCOCC2)Cc2ccc(-c3cncnc3)cc2C12COC(N)=N2 (stereo not drawn) [Compound 95, 2-methyl-6-(pyrimidin-5-yl)-2-(tetrahydro-2H-pyran-4-yl)-2,3-dihydro-5′H-spiro[indene-1,4′-oxazol]-2′-amine]	> 5000	> 5000	–	889	–	–
CC1(C2Cc3ccc(-c4cncnc4)cc3C23COC(N)=N3)CCOCC1 (stereo not drawn) [Compound 96, 2-(4-methyltetrahydro-2H-pyran-4-yl)-6-(pyrimidin-5-yl)-2,3-dihydro-5′H-spiro[indene-1,4′-oxazol]-2′-amine]	> 5000	1790	205	–	–	–
C[C@@H]1CC(C2Cc3ccc(-c4cncnc4)cc3C23COC(N)=N3)C[C@H](C)O1 (stereo partly drawn) [Compound 97, 2-((2R,6S)-2,6-dimethyltetrahydro-2H-pyran-4-yl)-6-(pyrimidin-5-yl)-2,3-dihydro-5′H-spiro[indene-1,4′-oxazol]-2′-amine]	> 5000	> 5000	1420	–	–	–
NC1=NC2(CO1)c1cc(-c3cncnc3)ccc1CC2N1CCOCC1 (stereo not drawn) [Compound 98, 2-morpholino-6-(pyrimidin-5-yl)-2,3-dihydro-5′H-spiro[indene-1,4′-oxazol]-2′-amine]	> 5000	> 1580	–	–	1840	–
CC#Cc1cncc(-c2ccc3c(c2)C2(COC(N)=N2)C(N2CCOCC2)C3)c1 (stereo not drawn) [Compound 99, 2-morpholino-6-(5-(prop-1-yn-1-yl)pyridin-3-yl)-2,3-dihydro-5′H-spiro[indene-1,4′-oxazol]-2′-amine]	3190	519	489	–	–	–
COc1cc(C#N)cc(-c2ccc3c(c2)C2(COC(N)=N2)C(N2CCOCC2)C3)c1 (stereo not drawn) [Compound 100, 3-(2′-amino-2-morpholino-2,3-dihydro-5′H-spiro[indene-1,4′-oxazol]-6-yl)-5-methoxybenzonitrile]	> 5000	1370	2160	–	–	–
COc1cc(C#N)cc(-c2ccc3c(c2)C2(COC(N)=N2)C(C)(C2CCOCC2)C3)c1 (stereo not drawn) [Compound 101, 3-(2′-amino-2-methyl-2-(tetrahydro-2H-pyran-4-yl)-2,3-dihydro-5′H-spiro[indene-1,4′-oxazol]-6-yl)-5-methoxybenzonitrile]	194	274	75.6	–	–	–
CC1(C2CCOCC2)Cc2ccc(-c3cncnc3)cc2C12COC(N)=N2 (stereo not drawn) [Compound 102, 2-methyl-6-(pyrimidin-5-yl)-2-(tetrahydro-2H-pyran-4-yl)-2,3-dihydro-5′H-spiro[indene-1,4′-oxazol]-2′-amine]	2190	–	–	32.9	–	> 5000
[2H]C([2H])([2H])O[C@H]1CC[C@@]2(Cc3ccc(-c4cc(Cl)cnc4F)cc3[C@]23N=C(N)OC3([2H])[2H])C[C@@H]1C [Compound 103, {(1S,1′R,3S,4S)-6′-(2-fluoro-5-chloropyridin-3-yl)-4-(methoxy-d3)-3-methyl-3′H,5″H-dispiro[cyclohexane-1,2′-indene-1′,4″-oxazol]-5″,5″-d2-2″-amine}]	22	55	0.6	–	–	–
[2H]C([2H])([2H])O[C@H]1CC[C@@]2(Cc3ccc(-c4cnccc4F)cc3[C@]23N=C(N)OC3([2H])[2H])C[C@@H]1C [Compound 104, {(1S,1′R,3S,4S)-6′-(4-fluoropyridin-3-yl)-4-(methoxy-d3)-3-methyl-3′H,5″H-dispiro[cyclohexane-1,2′-indene-1′,4″-oxazol]-5″,5″-d2-2″-amine}]	77	1010	0.7	–	–	–
[2H]C([2H])([2H])O[C@H]1CC[C@@]2(Cc3ccc(-c4cncc(C#N)c4)cc3[C@]23N=C(N)OC3([2H])[2H])C[C@@H]1C [Compound 105, {(1S,1′R,3S,4S)-6′-(5-cyanopyridin-3-yl)-4-(methoxy-d3)-3-methyl-3′H,5″H-dispiro[cyclohexane-1,2′-indene-1′,4″-oxazol]-5″,5″-d2-2″-amine}]	13	71	0.4	–	–	–
[2H]C([2H])([2H])O[C@@H]1CC[C@]2(Cc3ccc(-c4cc(Cl)cnc4F)cc3[C@]23N=C(N)OC3([2H])[2H])C[C@H]1C [Compound 106, {(1R,1′R,3R,4R)-4-(methoxy-d3)-3-methyl-6′-(2-fluoro-5-chloropyridin-3-yl)-3′H,5″H-dispiro[cyclohexane-1,2′-indene-1′,4″-oxazol]-5″,5″-d2-2″-amine}]	49	80	2.8	–	–	–
[2H]C([2H])([2H])O[C@@H]1CC[C@]2(Cc3ccc(-c4cnccc4F)cc3[C@]23N=C(N)OC3([2H])[2H])C[C@H]1C [Compound 107, {(1R,1′R,3R,4R)-4-(methoxy-d3)-3-methyl-6′-(4-fluoropyridin-3-yl)-3′H,5″H-dispiro[cyclohexane-1,2′-indene-1′,4″-oxazol]-5″,5″-d2-2″-amine}]	294	2110	1.8	–	–	–
[2H]C([2H])([2H])O[C@@H]1CC[C@]2(Cc3ccc(-c4cncc(C#N)c4)cc3[C@]23N=C(N)OC3([2H])[2H])C[C@H]1C [Compound 108, {(1R,1′R,3R,4R)-4-(methoxy-d3)-3-methyl-6′-(5-cyanopyridin-3-yl)-3′H,5″H-dispiro[cyclohexane-1,2′-indene-1′,4″-oxazol]-5″,5″-d2-2″-amine}]	56	58	1.5	–	–	–
[2H]C1([2H])OC(N)=NC12c1cc(-c3cc(F)cc(F)c3)ccc1C[C@@]21CC[C@H](OC)[C@@H](C)C1 (stereo partly drawn) [Compound 110, {(1S,3S,4S)-4-methoxy-3-methyl-6′-(3,5-difluorophenyl)-3′H,5″H-dispiro[cyclohexane-1,2′-indene-1′,4″-oxazol]-5″,5″-d2-2″-amine}]	67	96	10	–	–	–
